Assay results from US6943190B2, “Method of using pyruvate and/or its derivatives for the treatment of cytokine-mediated inflammatory conditions” (University of Pittsburgh-of the Commonwealth System of …, priority 2001, dated 2005).
Where two headings read alike, the source gives them in different places.

Columns and labels:
Type in all cases: cell-based, murine
p38 MAPK = assay: LPS-induced p38 MAPK phosphorylation in RAW264.7 cells (western blot)
Procedure: (a) RAW264.7 cells were stimulated with LPS in the presence of the indicated concentrations of ethyl pyruvate. The activation of NF-kB was analyzed by EMSA at 15 min and 4 hours using a ^32P-labeled NF-B probe. Ethyl pyruvate suppressed activation of NF-B in an ethyl pyruvate concentration dependent fashion. The experiment was repeated 3 times. (b) Supershift and competition studies. Nuclear extract of macrophages stimulated with LPS and incubated with antibody against p65-Rel to induce specific supershift of NF-κB complex. Nuclear extracts were incubated with 100-fold molar excess of unlabeled (cold) NP-κB or HIF-1 probe for competition analysis. (c) RAW264.7 cells were stimulated with LPS in the presence of the indicated concentration of ethyl pyruvate. The phosphorylation of p38MAPK was analyzed by western blot using antibodies against phosphorylated (thr180/tyr182) p38MAPK (in accordance with the manufacturer (New England Biolabs, Inc Cat. # 9210, Beverly, Mass.). (d) The total amount of p38 MAPK is visualized by western blot. Ethyl pyruvate prevents the phosphorylation of p38MAPK in macrophage cultures without affecting the intracellular level of total p38MAPK; and
Cell Culture. […]

TNF gene transcript = assay: TNF mRNA in LPS-stimulated RAW 264.7 cells (RNase protection assay)
Procedure: (§1) Cell Culture. BALB/c murine macrophage-like RAW 264.7 cells obtained from the American Type Culture Collection (ATCC Number TIB-71, ATCC, Rockville, Mass.) (61), were cultured in RPMI 1640 (Life Technologies, Grand Island, N.Y.) supplemented with 10% heat inactivated fetal bovine serum (Gemini, Calabasas, Calif.), 2 mM glutamine (Cat. # 25030-149, Gibco BRL, Rockville, Mass.) and antibiotic-antimycotic mix (Cat. # 15240-062, Gibco BRL, Rockville, Mass.) in a humidified incubator with 5% CO2. Cells were mechanically removed and resuspended in serum-free Opti-MEM I medium (Life Technology, Grand Island, N.Y.) to perform experiments at 75% confluence.
Total RNA extraction and RNase protection assay. […] The levels of TNF and cyclophilin mRNA in RAW cells were measured using an RNase protection assay kit from PharMingen in accordance with the manufacturer's instructions (San Diego, Calif.). […] Molecular weight markers were prepared using pBR-322 plasmid DNA digested with MSP I (New England Bio Labs, Beverly, Mass.) and Klenow end-labeled (Strategene, La Jolla, Calif.) with ^α-32P-dCTP (800 Ci/mmol, Amersham); mRNA levels were measured with an Instantlmager (Packard Instrument Co., Meriden, Conn.).
To determine the effect of ethyl pyruvate on TNF synthesis by macrophages, murine macrophage-like RAW 264.7 cells were stimulated with endotoxin, and TNF measured in the conditioned media. […]

TNF = TNF release by LPS-stimulated RAW 264.7 macrophage cultures (ELISA)
Procedure: as §1
Cytokine measurements. TNF concentration in mouse serum and in conditioned media from RAW 264.7 cell cultures was measured by ELISA (minimum detectable concentration=10 pg/ml). […] Mouse serum IL-6 and IL-1β levels were measured using ELISA kits (R&D Systems, Inc., Minneapolis, Minn.). HMGB-1 was analyzed by western blot as previously described by Wang et al, 1999. […] Protein was electroblotting to Immun-blot PVDF membrane (Bio-rad, Hercules Calif.) and HMGB-1 was analyzed using polyclonal 241 antibody and secondary anti-rabbit horseradish peroxidase (Amersham, Pitscataway, N.J.). Standard curves were constructed using r-HMGB-1, and the intensity of the 30 kD band analyzed by densitometry. […]

CCOC(=O)C(C)=O [ethyl pyruvate]
LPS-induced phosphorylation of p38 MAPK (p38 MAPK; antibodies against phosphorylated (thr180/tyr182) p38MAPK): prevented the LPS-induced phosphorylation and subsequent activation of p38 MAPK
total levels of p38 MAPK (p38 MAPK; specificity control, western blot): did not significantly influence the total levels of p38 MAPK
amount of TNF mRNA / TNF transcription (TNF gene transcript): prevents LPS-induced transcription of TNF in an ethyl pyruvate concentration dependent fashion
amount of TNF mRNA / TNF transcription (TNF gene transcript; listed as Ethyl pyruvate): significantly reduced the amount of TNF mRNA
synthesis of TNF at the highest doses tested (TNF; LPS-stimulated RAW 264.7 cells, highest doses of ethyl pyruvate): not completely inhibited
EC50 (TNF; Mus musculus, RAW264.7, RAW 264.7 cells stimulated with 50 or 100 ng/ml LPS, conditioned media, read-out: concentration that suppressed 50% of the TNF response (EC50)): 3.4 mM
